Data on 2 compounds can be found in patent publication US20180072944A1, “Stannous Fluorescent Probe” (priority 2016, published 2018).

Data set [1] is described as follows: Metal ion sensing: fluorescence titration and selectivity experiments. In kind it is physicochemical. Particulars: for fluorescence at 580 nm upon addition of Sn^2+ / selectivity: metal ions that turn on fluorescence / fluorescence of probe solution without metal ion: 20 μM in ethanol-water (1:1, v/v, pH 7.04); for fluorescence at 580 nm upon addition of Sn^2+: Sn^2+ 0-20 eq; for fluorescence at 580 nm upon addition of Sn^2+ / selectivity: metal ions that turn on fluorescence / fluorescence enhancement with other transition and heavy metal ions: excitation 560 nm; for fluorescence of probe solution without metal ion: no Sn^2+; for fluorescence enhancement with other transition and heavy metal ions: K^+, Ag^+, Ca^2+, Mg^2+, Zn^2+, Pb^2+, Ni^2+, Mn^2+, Co^2+, Cd^2+, Hg^2+, 20 μM probe. As for the experimental part:
The procedure for metal ion sensing is described. Solutions of the metal ions (10.0 mM) are prepared in deionized water. […] Sn^2+ stock solution is added into the quartz optical cell gradually by micro-pipette. Spectral data is recorded at 5 min after addition. […] For fluorescence measurements, excitation is provided at 560 nm, while emission is collected from 565 to 700 nm. Metal ion response is described. Fluorescent ‘turn on’ probe is conducive for detection target. […] High-level selectivity is of paramount importance for an excellent chemosensor. […] Metal ion response of R1 and R2 are suited for detection of Sn^2+ in living Streptococcus mutans cells.

Data set [2] is described as follows: pH titration of fluorescence. The settings on record: 10 μM in PBS, emission 580 nm, excitation 560 nm. The format is physicochemical. As for the experimental part: pH titration of Compounds R1 and R2 is described. Stock solutions of Compounds R1 and R2 are respectively added to sodium phosphate buffers of various pH to a final concentration of 10 μM. The fluorescence emission spectra are recorded as a function of pH using λex at 560 nm. The titration curves are plotted by fluorescence emission intensities at 580 nm versus pH.
The impact of pH values on fluorescence is described. The pirolactam ring of the rhodamine derivatives will open in a certain pH range and indicates the fluorescence of rhodamine. It is therefore necessary to check the fluorescence properties of Compounds R1 and R2 in solutions with different pH values. Furthermore, in the cell, the acidity of different organelles may vary greatly. For example, the normal pH of lysosomes is 4.5-5.5, which may induce ring opening of R1 or R2. Considering the application of Sn^2+ probe R1 and R2 intracellular or extracellular may be disturbed by the pH, the acid-base titration experiments are carried out by adjusting the pH with an aqueous solution of NaOH and HCl in Phosphate-Buffered Saline (“PBS”) (FIG. 2 a and b). […] It is predicted that R1 will be turned on by lysosomes in cell without Sn^2+ present. FIGS. 2a and 2b show the dependence of fluorescence at 580 nm of comparative Compound R1 and inventive Compound R2 (10 μM) at different pH in PBS solution. Excitation was at 560 nm.

A further data set deals with lysosomes of KB cells. Nature of the data set: Colocalization experiment with LysoTracker Green DND in KB cells. In kind it is cell-based. The settings on record: 50 μM Sn^2+, 10 μM probe, 1 μM LysoTracker Green DND, 30 min each. As for the experimental part: Colocalization experiments are described. 50 μM SnF2 in the culture media is added to the cells. The cells are incubated at 37° C. for 30 min, and washed with PBS three times to remove the excess SnF2. After washing with PBS (2 mL×3) to remove the excess SnF2, the cells are treated with 10 μM of Compound R1 or R2 separately for 30 min, and washed with PBS three times to remove the excess probe and bathed in PBS (2 mL) before imaging. Cell imaging is then carried out as the former. After washing with PBS (2 mL×3) to remove the excess probes, the cells were treated with 1.0 μM LysoTracker® Green DND at 37° C. for 30 min. Cell imaging is then carried out as the former.
Firstly, the KB cells are stained with 50 μM Sn^2+ at 37° C. for 30 min, and then separately incubated with 10 μM of Compound R1 and 1 μM LysoTracker® Green DND or Compound R2 and 1 μM LysoTracker® Green DND under the same conditions. […] There is no fluorescence in other intracellular sites. […] This may be a transmission path of Sn. […] Many pharmaceutical agents, including various large and small molecules, must be delivered specifically to particular cell organelles in order to efficiently exert their therapeutic action. Such delivery is still mainly an unresolved problem, but targeting detection is helpful attempt. […]

Data set [3] concerns Streptococcus mutans (ATCC® 700610™). Nature of the data set: Fluorescence imaging of Sn^2+ in bacteria (confocal). In kind it is cell-based. Particulars: for fluorescence change in Streptococcus mutans after incubation with Sn^2+: 10 μM probe 60 min at 37° C., then 50 μM Sn^2+; for fluorescence in Streptococcus mutans without Sn^2+ present: 10 μM probe, 37° C., 60 min, no Sn^2+. As to the method: Cell culture preparation is described. The KB cell line was provided by of Biochemistry and Cell Biology (China). Cells are grown in MEM (Modified Eagle's Medium) supplemented with 10% FBS (Fetal Bovine serum) and 5% CO2 at 37° C. Cell ([…]) are plated on […] glass coverslips and allowed to adhere for 24 hours. The Streptococcus mutans (ATCC® 700610™) is prepared by inoculating the single colony from the BHI (Brain-Heart Infusion) agar plate into 5 mL BHI broth and incubating at 37° C. for 48 h.
For fluorescence imaging of Sn^2+ in bacteria is described. Freshly diluted Streptococcus mutans (ATCC® 700610™) is sub cultured in the presence of the 10 μM Compound R1 or R2, separately at 37° C. on a shaker bed at 400 rpm for 60 min. Then the bacteria are collected by centrifugation at 8,000 rpm for 2 min and rinsed with Saline (pH=7.0). The process is repeated three times before imaging. After washing with Saline (2 mL×3) to remove the excess probes, the bacteria is cultured in the presence of the 50 μM SnF2 at 37° C. on a shaker bed at 400 rpm for 60 min. Then the bacteria are collected by centrifugation at 8,000 rpm for 2 min and rinsed with Saline (pH=7.0). The process was repeated three times before imaging. The light source is at =543 nm provided excitation and emission are collected in the range=560-660 nm.
Turning to FIGS. 5a and 5b, fluorescence imaging of Sn^2+ in bacteria is described. FIGS. 5a and 5b show simplified illustrations derived based upon CLSM. The illustrations are not drawn to scale but rather enlarged for illustrative purposes. It has been reported that Sn^2+ can inhibit metabolism of Streptococcus mutans. The practical applicability of Compounds R1 and R2 as a Sn^2+ probe in the fluorescence imaging of living Streptococcus mutans (ATCC® 700610™) are investigated. Firstly, the Streptococcus mutans (ATCC® 700610™) are separately stained with 10 μM Compound R1 or R2 at 37° C. for 60 min.
FIGS. 5a and 5b show simplified illustrations derived based upon CLSM images of Streptococcus mutans (ATCC® 700610™). The illustrations are not drawn to scale but rather enlarged for illustrative purposes. (a1-c1) and (a2-c2) Cells are separately incubated with 10 μM comparative Compound R1 and inventive Compound R2 for 30 min, (d1-f1) and (d2-f2) followed incubated with 50 μM SnF2 for 30 min. Emission is collected in red channel at 560-660 nm (b1, e1, b2, e2); a1, d1, a2, d2 are bright field images and c1, f1, c2, f2 are overlay images, respectively (λex=543 nm).

For the compound `CCN(CC)c1ccc2c(c1)Oc1cc(N(CC)CC)ccc1C21c2ccccc2C(=O)N1NC(=O)OC(C)(C)C` [Compound R2], in data set [1], the “fluorescence at 580 nm upon addition of Sn^2+” value was “turned on and grown drastically”; the “selectivity: metal ions that turn on fluorescence” value is “tuning on just in the presence of Sn^2+ and Cr^3+”; the “fluorescence of probe solution without metal ion” value was “non-fluorescent”; the “fluorescence enhancement with other transition and heavy metal ions” value is “minimal enhancement”. In addition, in data set [2], the “pH range for inducing fluorescence turning on” value was 2-4.5 pH. Also, in the data set on lysosomes of KB cells, the “colocalization of probe fluorescence with LysoTracker Green DND” value is given as “overlap with LysoTracker® Green DND very well”. Moreover, in data set [3], the “fluorescence change in Streptococcus mutans after incubation with Sn^2+” value is given as “significant fluorescence increasing” and the “fluorescence in Streptococcus mutans without Sn^2+ present” value is reported as “no fluorescence emission”.
With “Spiro[1H-isoindole-1,9′-[9H]xanthen]-3(2H)-one, 2-[2-[bis(2-hydroxyethyl)amino]amino]ethyl]-3′,6′-bis(diethylamino) [Compound R1]”, in data set [1], the “fluorescence at 580 nm upon addition of Sn^2+” value is “turned on and grown drastically”; the “selectivity: metal ions that turn on fluorescence” value was “tuning on just in the presence of Sn^2+ and Cr^3+”; the “fluorescence of probe solution without metal ion” value is given as “non-fluorescent”; the “fluorescence enhancement with other transition and heavy metal ions” value is “minimal enhancement”. Moreover, the “pH range for inducing fluorescence turning on” value in data set [2] is listed as 2.5-6 pH. For the same compound, the “colocalization of probe fluorescence with LysoTracker Green DND” value in the data set on lysosomes of KB cells is “overlap with LysoTracker® Green DND very well”. For the same compound, in data set [3], the “fluorescence change in Streptococcus mutans after incubation with Sn^2+” value is “significant fluorescence increasing” and the “fluorescence in Streptococcus mutans without Sn^2+ present” value was “no fluorescence emission”.
